# Data as given in patent publication US20050130909A1 (priority 2002, published 2005).
# Several values for one entry are separate records, joined by “and”; a condition that tells them apart may be missing. Equal values may be shown once. Read-outs that look alike come from different tables or passages of the source.
# Key:
# [1] = test system: skin and soft tissue infections (SSTI); experiment: Phase II SSTI trial: clinical response (success = cure or improvement); assay type: in vivo, human; conditions: for Clinical success rate at FU, patients with MRSA: MITT population; for Clinical success rate, exploratory subanalysis: patients with deep or complicated SSTI at baseline
# Method: This randomized, controlled study evaluated the safety and efficacy of two dose regimens of dalbavancin.
# There were 62 patients randomized into the study; all received at least one dose of study medication. Four study populations were evaluated for safety and efficacy and were defined as follows: The intent-to-treat (ITT) population included all patients who received at least one dose of study drug (all randomized study subjects).
# The effectiveness of the three treatment regimens was determined by assessing the patients' clinical response and the documented or presumed microbiological responses. The primary efficacy endpoint was clinical response at the follow-up visit for the clinically evaluable population. Clinical response, for both EOT and FU visits, was categorized as success (cure or improvement) or failure (including indeterminate results). Patients classified as successes must not have received additional systemic antibacterial treatment for their infection. Failure was defined as persistence of one or more local or systemic signs and symptoms of SSTI such that treatment with new or additional systemic antibacterial agents was required for the SSTI.
# staphylococci = experiment: In vitro antibacterial activity; assay type: cell-based; conditions: including some teicoplanin-resistant strains
# human albumin = human albumin (Homo sapiens, UniProt P02768); experiment: Protein binding by isothermal titration microcalorimetry (ITC); conditions: for Calculated percent Binding to Human albumin: albumin 6×10^−4 M assumed
# human α-glycoprotein = experiment: Protein binding by ITC; conditions: for Apparent binding affinity Ka: pH 7.4; for Calculated percent Binding to Human α-glycoprotein: protein […]10^−5 M assumed
# [2] = Stability of dalbavancin in plasma; assay type: in vitro ADME, human; conditions: 1.5 and 90 μg/ml
# bacteria = conditions: cited from earlier work
# dog albumin = dog albumin (Canis lupus familiaris, UniProt P49822); experiment: Protein binding by ITC; conditions: pH 7.4
# HSA = HSA (Homo sapiens, UniProt P02768); experiment: MALDI-TOF mass spectrometry of protein-dalbavancin complexes; assay type: binding; conditions: ratios (1:2, 1:10)
# Method: The samples were prepared for analysis using the dried droplet technique. Spectra were obtained on a BRUKER FLEX III, tof mass spectrometer previously tuned and calibrated using standard bovine serum albumin, acquiring and averaging spectra generated by 200 laser shots. Matrix: 9 parts of DHB-9 (2,5-dihydroxy-benzoic acid) saturated in acetonitrile/H2O (50:50), 1 part of sinapinic acid saturated in acetonitrile/H2O (50:50). 0.5 ul of sample solution and 0.5 ul of matrix solution were mixed and placed on the laser target.
# [3] = ESI-MS analysis of multimers in solution
# Method: Experiments were performed using an Applied Biosystem API III+ mass spectrometer equipped with a TurboIonSpray source, a Triple Quadrupole analyzer, operating in positive ion mode.
# The mass spectra were obtained in electrospray positive mode on a Finnigan LCQ^Deca ion trap instrument previously tuned and calibrated in electrospray mode using Ultramark 1621, caffeine and MRFA (L-metionyl-arginyl-phenilalanyl-arginine).
# Lys-D-Ala-D-Lactate = experiment: ITC, preliminary experiments; assay type: binding; conditions: absence of serum proteins
# [4] = Safety assessments in healthy subjects; assay type: in vivo, human
# Method: Adverse events were recorded and assessed for severity and relationship to study drug. Laboratory data (chemistry panel, CBC with differential, urinalysis) were collected and assessed for changes from baseline and out-of-range values. ECG, physical examination, and vital signs were obtained, and changes from baseline were assessed.
# rat albumin = rat albumin (Rattus norvegicus, UniProt P02770); experiment: Protein binding by ITC; conditions: pH 7.4
# [5] = test system: N,N′-diacetyl-Lys-D-Ala-D-Ala; experiment: ITC of binding to tri-peptide cell-wall analog, with and without HSA
# Method: Peptide concentrations were determined by weight.
# Trans. R. Soc. Lond. Ser. A-Math. Phys. Eng. […] Wiley, (1998) p 103-111; and Cooper, A., Curr. Opin. Chem. Biol. (1999) 3, 557-563.
# dipeptide (D-Ala-D-Ala) = experiment: ITC, preliminary experiments; assay type: binding; conditions: absence of serum proteins
# [6] = AE possibly related, upper limit of normal 40 IU/L
# [7] = single 1000 mg IV dose, healthy subjects
# [8] = six healthy volunteers, single 1000 mg IV
# Chain of human albumin (P02768 25-609): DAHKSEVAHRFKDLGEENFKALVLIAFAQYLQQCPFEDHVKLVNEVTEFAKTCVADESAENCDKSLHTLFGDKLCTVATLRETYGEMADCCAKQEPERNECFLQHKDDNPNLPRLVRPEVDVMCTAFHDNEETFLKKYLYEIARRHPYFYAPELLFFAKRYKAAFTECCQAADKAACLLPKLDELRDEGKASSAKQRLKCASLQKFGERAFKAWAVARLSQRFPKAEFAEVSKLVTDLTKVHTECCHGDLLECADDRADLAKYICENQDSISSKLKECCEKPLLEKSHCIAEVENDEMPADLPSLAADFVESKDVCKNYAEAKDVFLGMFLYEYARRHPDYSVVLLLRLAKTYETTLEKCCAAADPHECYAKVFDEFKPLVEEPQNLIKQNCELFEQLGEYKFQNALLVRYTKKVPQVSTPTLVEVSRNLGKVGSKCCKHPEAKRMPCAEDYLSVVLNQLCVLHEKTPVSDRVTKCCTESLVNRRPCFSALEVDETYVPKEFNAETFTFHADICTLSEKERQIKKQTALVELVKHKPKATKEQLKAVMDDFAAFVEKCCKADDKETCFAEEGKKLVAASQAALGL
# Chain of rat albumin (P02770 25-608): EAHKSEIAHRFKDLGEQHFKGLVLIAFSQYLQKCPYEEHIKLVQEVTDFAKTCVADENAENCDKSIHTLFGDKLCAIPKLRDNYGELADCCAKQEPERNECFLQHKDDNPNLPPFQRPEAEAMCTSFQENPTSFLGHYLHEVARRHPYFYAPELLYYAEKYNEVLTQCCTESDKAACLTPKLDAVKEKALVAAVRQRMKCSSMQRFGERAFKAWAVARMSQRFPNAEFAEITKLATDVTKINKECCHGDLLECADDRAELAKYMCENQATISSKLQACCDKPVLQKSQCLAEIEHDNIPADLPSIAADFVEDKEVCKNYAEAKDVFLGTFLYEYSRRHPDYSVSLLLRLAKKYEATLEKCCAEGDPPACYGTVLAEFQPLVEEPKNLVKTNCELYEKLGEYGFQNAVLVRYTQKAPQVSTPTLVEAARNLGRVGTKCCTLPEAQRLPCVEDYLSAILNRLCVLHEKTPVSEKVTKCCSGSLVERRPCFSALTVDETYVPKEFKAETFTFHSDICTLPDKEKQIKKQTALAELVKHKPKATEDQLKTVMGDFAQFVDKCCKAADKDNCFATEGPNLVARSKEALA
# Chain of dog albumin (P49822 25-608): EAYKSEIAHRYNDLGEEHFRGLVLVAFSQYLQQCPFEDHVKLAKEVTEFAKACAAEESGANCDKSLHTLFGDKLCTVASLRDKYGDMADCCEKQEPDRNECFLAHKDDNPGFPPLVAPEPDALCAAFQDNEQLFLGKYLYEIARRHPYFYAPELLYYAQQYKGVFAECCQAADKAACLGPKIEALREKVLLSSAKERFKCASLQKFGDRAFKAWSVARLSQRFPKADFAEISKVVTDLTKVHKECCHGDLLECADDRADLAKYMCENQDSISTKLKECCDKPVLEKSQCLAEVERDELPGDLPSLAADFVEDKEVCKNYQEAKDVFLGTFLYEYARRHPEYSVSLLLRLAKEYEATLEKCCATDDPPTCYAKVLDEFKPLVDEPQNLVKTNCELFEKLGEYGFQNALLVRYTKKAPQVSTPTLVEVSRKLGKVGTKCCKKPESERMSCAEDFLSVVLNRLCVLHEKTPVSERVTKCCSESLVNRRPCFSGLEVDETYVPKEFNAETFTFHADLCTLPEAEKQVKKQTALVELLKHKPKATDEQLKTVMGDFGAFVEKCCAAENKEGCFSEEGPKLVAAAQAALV
# Chain of HSA (P02768 25-609): as the sequence (P02768 25-609) above
compound,measurement,setting,value
CN[C@H]1C(=O)N[C@@H]2Cc3ccc(cc3)Oc3cc4cc(c3O[C@@H]3O[C@H](C(=O)O)[C@@H](O)[C@H](O)[C@H]3NC(=O)CCCCCCCCC(C)C)Oc3ccc(cc3Cl)[C@@H](O)[C@@H]3NC(=O)[C@H](NC(=O)[C@@H]4NC(=O)[C@@H](NC2=O)c2cc(cc(O)c2Cl)Oc2cc1ccc2O)c1ccc(O)c(c1)-c1c(O[C@H]2O[C@H](CO)[C@@H](O)[C@H](O)[C@@H]2O)cc(O)cc1[C@@H](C(=O)NCCCN(C)C)NC3=O [Dalbavancin],Clinical success rate,"[1]; Clinically evaluable at EOT, single-dose 1100 mg",13/16 (61.5) %
same,Clinical success rate,"[1]; Clinically evaluable at EOT, two-dose 1000/500 mg",16/17 (94.1) %
same,Clinical success rate,"[1]; ITT at EOT, single-dose dalbavancin 1100 mg IV day 1",15/20 (75.0) %
same,Clinical success rate,"[1]; ITT at EOT, two-dose dalbavancin 1000 mg day 1 + 500 mg day 8 IV",19/21 (90.5) %
same,Clinical success rate,"[1]; ITT at FU, single-dose 1100 mg",12/20 (60.0) %
same,Clinical success rate,"[1]; ITT at FU, two-dose 1000/500 mg",19/21 (90.5) %
same,Clinical success rate,"[1]; MITT at EOT, single-dose 1100 mg",10/14 (71.4) %
same,Clinical success rate,"[1]; MITT at EOT, two-dose 1000/500 mg",12/13 (92.3) %
same,Clinical success rate,"[1]; MITT at FU, single-dose 1100 mg",7/14 (50.0) %
same,Clinical success rate,"[1]; MITT at FU, two-dose 1000/500 mg",12/13 (92.3) %
same,"Clinical success rate at FU, patients with MRSA",[1]; single-dose dalbavancin,50%
same,"Clinical success rate at FU, patients with MRSA",[1]; two-dose dalbavancin,80%
same,Clinical success rate,"[1]; Microbiologically evaluable at EOT, single-dose 1100 mg",10/13 (76.9) %
same,Clinical success rate,"[1]; Microbiologically evaluable at EOT, two-dose 1000/500 mg",10/11 (90.9) %
same,Clinical success rate,"[1]; Microbiologically evaluable at FU, single-dose 1100 mg",6/11 (54.5) %
same,Clinical success rate,"[1]; Microbiologically evaluable at FU, two-dose 1000/500 mg",10/11 (90.9) %
same,"Clinical success rate, exploratory subanalysis",[1]; single-dose dalbavancin,58.3%
same,"Clinical success rate, exploratory subanalysis",[1]; two-dose dalbavancin,93.8%
same,In vitro activity relative to teicoplanin and vancomycin,staphylococci,more active in vitro against staphylococci (including some teicoplanin-resistant strains) than teicoplanin and vancomycin
same,Apparent binding affinity Ka,"human albumin; 37° C., pH 7.4",1.33 (±0.15) ×10^5 M^−1
same,Binding stoichiometry N (protein to dalbavancin),"human albumin; ITC fit, in all cases (all proteins tested), FIG. 2",< 1
same,Binding to human serum albumin,human albumin; across 1-500 μM dalbavancin,exceeds 98%
same,Calculated percent Binding to Human albumin,human albumin; antibiotic 1 μM,98.8%
same,Calculated percent Binding to Human albumin,human albumin; antibiotic 10 μM,98.8%
same,Calculated percent Binding to Human albumin,human albumin; antibiotic 100 μM,98.7%
same,Calculated percent Binding to Human albumin,human albumin; antibiotic 165 μM,98.6%
same,Calculated percent Binding to Human albumin,human albumin; antibiotic 250 μM,98.5%
same,Calculated percent Binding to Human albumin,human albumin; antibiotic 500 μM,98.0%
same,Binding stoichiometry antibiotic:protein,human albumin; binding stoichiometry modeling of ITC data,two dalbavancin molecules are bound to one molecule of protein
same,Free fraction,human albumin; human,~1%
same,Apparent binding affinity Ka,human α-glycoprotein; 25° C.,1.84 (±0.36) ×10^5 M^−1
same,Apparent binding affinity Ka,human α-glycoprotein; 37° C.,4.8 (±2.3) ×10^5 M^−1
same,Calculated percent Binding to Human α-glycoprotein,human α-glycoprotein; antibiotic 1 μM,73.0%
same,Calculated percent Binding to Human α-glycoprotein,human α-glycoprotein; antibiotic 10 μM,68.2%
same,Calculated percent Binding to Human α-glycoprotein,human α-glycoprotein; antibiotic 100 μM,26.2%
same,Calculated percent Binding to Human α-glycoprotein,human α-glycoprotein; antibiotic 165 μM,16.9%
same,Calculated percent Binding to Human α-glycoprotein,human α-glycoprotein; antibiotic 250 μM,11.4%
same,Calculated percent Binding to Human α-glycoprotein,human α-glycoprotein; antibiotic 500 μM,5.9%
same,Stability in processed plasma samples,[2]; 24 hours at room temperature,stable after 24 hours at room temperature
same,"Stability in human plasma, freeze-thaw",[2]; three cycles of freeze-thaw,stable after three cycles of freeze-thaw treatment
same,Concentrations known to be bactericidal,bacteria,4 to 32 mg/L
same,Apparent binding affinity Ka,dog albumin; 25° C.,0.62 (±0.09) ×10^5 M^−1
same,Apparent binding affinity Ka,dog albumin; 37° C.,0.50 (±0.13) ×10^5 M^−1
same,Complex with HSA at very high dalbavancin to protein ratios,HSA,complexes containing 2 molecules of dalbavancin per protein molecule can be observed
same,Population ratio of multimer to monomer: influence of ionic strength,"[3]; 100 μg/mL, ammonium formate 5, 50, 100 mM pH 5, FIGS. 6-8",decrease in dalbavancin multimer to monomer population ratio
same,Population ratio of multimer to monomer: influence of concentration,"[3]; 20, 40, 60, and 80 μg/mL, FIG. 4",increases with increasing concentration
same,Multimers in solution,"[3]; dalbavancin 0.1 mg/ml in 8:2 water:isopropanol, teicoplanin 50 and 100 μg/mL in water",indicates the presence of dalbavancin multimers
same,Population ratio of multimer to monomer: influence of pH,"[3]; pH 2.5 to 5.5, FIG. 5",increases with increasing pH
same,Binding to Lys-D-Ala-D-Lactate,Lys-D-Ala-D-Lactate,no evidence of binding
same,"Eosinophilia, individual subject value","[4]; AE possibly related, upper limit of normal 0.4×10^3/μL",500 µL⁻¹
same,"Elevated ALT, individual subject value",[4]; [6],46 IU/L and 54 IU/L
same,"Elevated AST, individual subject value",[4]; [6],42 IU/L
same,"Elevated LDH, individual subject value","[4]; AE possibly related, upper limit of normal 90 IU/L",303 IU/L
same,"Post-baseline hematology, chemistry, vital signs, and ECG",[4]; single 1000 mg IV,No trends were seen
same,Deaths or serious adverse events,[4]; [7],No subject deaths or serious adverse events were reported
same,Tolerability,[4]; [7],well-tolerated
same,AEs possibly related to study medication,[4]; [8],Three volunteers reported AEs that were possibly related to study medication
same,"Adverse events, incidence and intensity",[4]; [8],"All volunteers reported at least one AE, all of mild intensity"
same,Apparent binding affinity Ka,rat albumin; 25° C.,3.1 (±0.5) ×10^5 M^−1
same,Apparent binding affinity Ka,rat albumin; 37° C.,2.8 (±1.8) ×10^5 M^−1
same,Kass,"[5]; 10 ° C., [HSA] 0 μM",920000 M⁻¹ and 685000 M⁻¹ and 624000 M⁻¹ and 670000 M⁻¹
same,Kd,"[5]; 10 ° C., [HSA] 0 μM, read-out: Kdiss",1.09 µM and 1.6 µM and 1.49 µM
same,Kd,"[5]; 10° C., absence of HSA, read-out: Average Kdiss",~1.4 µM
same,Weakening of binding affinity at HSA plateau relative to absence of HSA,[5]; 25° C.,10-12 ×
same,Kass,"[5]; 25 ° C., [HSA] 0 μM",313000 M⁻¹ and 330000 M⁻¹ and 320000 M⁻¹ and 280000 M⁻¹ and 303000 M⁻¹ and 319000 M⁻¹ and 393000 M⁻¹
same,Kd,"[5]; 25 ° C., [HSA] 0 μM, read-out: Kdiss",3.57 µM and 3.3 µM and 2.54 µM
same,Kd,"[5]; 25° C., absence of HSA (free dalbavancin), read-out: Average Kdiss",~3.1 µM
same,Kass,"[5]; 25 ° C., with HSA 34.2 μM",35000 M⁻¹
same,Kd,"[5]; 25 ° C., with HSA 34.2 μM, read-out: Kdiss",28.6 µM
same,Kd,"[5]; 37° C., absence of HSA, read-out: Average Kdiss",~8.4 µM
same,Effect of HSA on solubility of dalbavancin,[5]; aqueous buffer pH 7.4 containing HSA,HSA increased the solubility of dalbavancin
same,Kd,"[5]; read-out: Apparent Kdiss, plateau level at high concentrations of HSA (dalbavancin bound to HSA), 25° C., HSA above 35 μM up to 600 μM, FIG. 11",~35 µM
same,Binding to dipeptide (D-Ala-D-Ala),dipeptide (D-Ala-D-Ala),no evidence of binding
